The source of these data is patent publication US20140179664A1, “Heterocyclyl Pyrimidine Analogues As JAK Inhibitors” (Cellzome Limited, priority 2011, published 2014).

For one assay, the target named is T1, JAK1 (Homo sapiens, UniProt P23458).
T1 construct: endogenous in cells; host or cells: Molt4 (ATCC CRL-1582) and Ramos (ATCC CRL-1596), mixed lysate 1:2
The assay is described as follows: Kinobeads assay, JAK1. Type of assay: binding. The note with it: mixed Molt4/Ramos lysate, read-out: Inhibition values (IC50) JAK1. How it is done: After the incubation time the beads with captured proteins were separated from the lysate. Bound proteins were then eluted and the presence of JAK1, JAK2, JAK3 and TYK2 was detected and quantified using specific antibodies in a dot blot procedure and the Odyssey infrared detection system. Dose response curves for individual kinases were generated and IC50 values calculated.
(§1) 5×DP buffer: 250 mM Tris-HCl pH 7.4, 25% Glycerol, 7.5 mM MgCl2, 750 mM NaCl, 5 mM Na3VO4; filter the 5×DP buffer through a 0.22 μm filter and store in aliquots at −80° C. The 5×DP buffer is diluted with H2O to 1×DP buffer containing 1 mM DTT and 25 mM NaF.
Stock solutions of test compounds were prepared in DMSO. […] Starting with this solution a 1:3 dilution series (9 steps) was prepared. For control experiments (no test compound) a buffer containing 2% DMSO was used.
Cells were homogenized in a Potter S homogenizer in lysis buffer: 50 mM Tris-HCl, 0.8% NP40, 5% glycerol, 150 mM NaCl, 1.5 mM MgCl2, 25 mM NaF, 1 mM sodium vanadate, 1 mM DTT, pH 7.5. […] The material was dounced 10 times using a mechanized POTTER S, transferred to 50 mL falcon tubes, incubated for 30 minutes on ice and spun down for 10 minutes at 20,000 g at 4° C. (10,000 rpm in Sorvall SLA600, precooled). […] (33.500 rpm in Ti50.2, precooled). The supernatant was transferred again to a fresh 50 mL falcon tube, the protein concentration was determined by a Bradford assay (BioRad) and samples containing 50 mg of protein per aliquot were prepared. The samples were immediately used for experiments or frozen in liquid nitrogen and stored frozen at −80° C.
Cell lysate (approximately 50 mg protein per plate) was thawed in a water bath at room temperature and then stored on ice. […] The diluted cell lysate was stored on ice. Mixed Molt4/Ramos lysate was prepared by combining one volume of Molt4 lysate and two volumes of Ramos lysate (ratio 1:2).
Plates were sealed and incubated for 3 hours in a cold room on a plate shaker (Heidolph tiramax 1000) at 750 rpm. Afterwards the plate was washed 3 times with 230 μL washing buffer (1×DP 0.4% NP40). […] The eluate was frozen quickly at −80° C. and stored at −20° C.
Afterwards the membrane was washed twice for 10 minutes with PBS buffer containing 0.2% Tween 20 at room temperature. […] Afterwards the membrane was washed twice for 10 minutes each with 1×PBS buffer containing 0.2% Tween 20 at room temperature. Then the membrane was rinsed once with PBS buffer to remove residual Tween 20. The membrane was kept in PBS buffer at 4° C. and then scanned with the Odyssey instrument. Fluorescence signals were recorded and analysed according to the instructions of the manufacturer.

Another assay has as its target T2, TYK2 (Homo sapiens, UniProt P29597).
T2 construct: endogenous in cells; host or cells: Molt4 (ATCC CRL-1582) and Ramos (ATCC CRL-1596), mixed lysate 1:2
Briefly: Kinobeads assay, TYK2. Type of assay: binding. The note with it: mixed Molt4/Ramos lysate, read-out: Inhibition values (IC50) TYK2. How it is done: The compounds of the present invention as described in the previous examples were tested in a Kinobeads™ assay as described for ZAP-70 (WO-A 2007/137867). Briefly, test compounds (at various concentrations) and the affinity matrix with the immobilized aminopyrido-pyrimidine ligand 24 were added to cell lysate aliquots and allowed to bind to the proteins in the lysate sample. After the incubation time the beads with captured proteins were separated from the lysate. Bound proteins were then eluted and the presence of JAK1, JAK2, JAK3 and TYK2 was detected and quantified using specific antibodies in a dot blot procedure and the Odyssey infrared detection system. Dose response curves for individual kinases were generated and IC50 values calculated. Kinobeads™ assays for ZAP-70 (WO-A 2007/137867) and for kinase selectivity profiling (WO-A 2006/134056) have been previously described.
The affinity matrix was washed two times with 15 mL of lx DP buffer containing 0.2% NP40 (IGEPAL® CA-630, Sigma, #13021) and then resuspended in 1×DP buffer containing 0.2% NP40 (3% beads slurry).
as §1
Stock solutions of test compounds were prepared in DMSO. In a 96 well plate […] solution of diluted test compounds at 5 mM in DMSO were prepared. Starting with this solution a 1:3 dilution series (9 steps) was prepared. For control experiments (no test compound) a buffer containing 2% DMSO was used.
Molt4 cells (ATCC catalogue number CRL-1582) and Ramos cells (ATCC catalogue number CRL-1596) were grown in 1 L Spinner flasks (Integra Biosciences, #182101) in suspension in RPMI 1640 medium (Invitrogen, #21875-034) supplemented with 10% Fetal Bovine Serum (Invitrogen) at a density between 0.15×10^6 and 1.2×10^6 cells/mL. Cells were harvested by centrifugation, washed once with 1×PBS buffer (Invitrogen, #14190-094) and cell pellets were frozen in liquid nitrogen and subsequently stored at −80° C. Cells were homogenized in a Potter S homogenizer in lysis buffer: 50 mM Tris-HCl, 0.8% NP40, 5% glycerol, 150 mM NaCl, 1.5 mM MgCl2, 25 mM NaF, 1 mM sodium vanadate, 1 mM DTT, pH 7.5. One complete EDTA-free tablet (protease inhibitor cocktail, Roche Diagnostics, 1873580) per 25 mL buffer was added. The material was dounced 10 times using a mechanized POTTER S, transferred to 50 mL falcon tubes, incubated for 30 minutes on ice and spun down for 10 minutes at 20,000 g at 4° C. (10,000 rpm in Sorvall SLA600, precooled). The supernatant was transferred to an ultracentrifuge (UZ)-polycarbonate tube (Beckmann, 355654) and spun for 1 hour at 100.000 g at 4° C. (33.500 rpm in Ti50.2, precooled). The supernatant was transferred again to a fresh 50 mL falcon tube, the protein concentration was determined by a Bradford assay (BioRad) and samples containing 50 mg of protein per aliquot were prepared. The samples were immediately used for experiments or frozen in liquid nitrogen and stored frozen at −80° C.
Cell lysate (approximately 50 mg protein per plate) was thawed in a water bath at room temperature and then stored on ice. To the thawed cell lysate 1×DP 0.8% NP40 buffer containing protease inhibitors (1 tablet for 25 mL buffer; EDTA-free protease inhibitor cocktail; Roche Diagnostics 1873580) was added in order to reach a final protein concentration of 10 mg/mL total protein. The diluted cell lysate was stored on ice. Mixed Molt4/Ramos lysate was prepared by combining one volume of Molt4 lysate and two volumes of Ramos lysate (ratio 1:2).
To a 96 well filter plate (Multiscreen HTS, BV Filter Plates, Millipore #MSBVN1250) were added per well: 100 μL affinity matrix (3% beads slurry), […], of compound solution, and 50 μL of diluted lysate. […]

The structures appear in SMILES notation.

T1 sequence (P23458 whole entry): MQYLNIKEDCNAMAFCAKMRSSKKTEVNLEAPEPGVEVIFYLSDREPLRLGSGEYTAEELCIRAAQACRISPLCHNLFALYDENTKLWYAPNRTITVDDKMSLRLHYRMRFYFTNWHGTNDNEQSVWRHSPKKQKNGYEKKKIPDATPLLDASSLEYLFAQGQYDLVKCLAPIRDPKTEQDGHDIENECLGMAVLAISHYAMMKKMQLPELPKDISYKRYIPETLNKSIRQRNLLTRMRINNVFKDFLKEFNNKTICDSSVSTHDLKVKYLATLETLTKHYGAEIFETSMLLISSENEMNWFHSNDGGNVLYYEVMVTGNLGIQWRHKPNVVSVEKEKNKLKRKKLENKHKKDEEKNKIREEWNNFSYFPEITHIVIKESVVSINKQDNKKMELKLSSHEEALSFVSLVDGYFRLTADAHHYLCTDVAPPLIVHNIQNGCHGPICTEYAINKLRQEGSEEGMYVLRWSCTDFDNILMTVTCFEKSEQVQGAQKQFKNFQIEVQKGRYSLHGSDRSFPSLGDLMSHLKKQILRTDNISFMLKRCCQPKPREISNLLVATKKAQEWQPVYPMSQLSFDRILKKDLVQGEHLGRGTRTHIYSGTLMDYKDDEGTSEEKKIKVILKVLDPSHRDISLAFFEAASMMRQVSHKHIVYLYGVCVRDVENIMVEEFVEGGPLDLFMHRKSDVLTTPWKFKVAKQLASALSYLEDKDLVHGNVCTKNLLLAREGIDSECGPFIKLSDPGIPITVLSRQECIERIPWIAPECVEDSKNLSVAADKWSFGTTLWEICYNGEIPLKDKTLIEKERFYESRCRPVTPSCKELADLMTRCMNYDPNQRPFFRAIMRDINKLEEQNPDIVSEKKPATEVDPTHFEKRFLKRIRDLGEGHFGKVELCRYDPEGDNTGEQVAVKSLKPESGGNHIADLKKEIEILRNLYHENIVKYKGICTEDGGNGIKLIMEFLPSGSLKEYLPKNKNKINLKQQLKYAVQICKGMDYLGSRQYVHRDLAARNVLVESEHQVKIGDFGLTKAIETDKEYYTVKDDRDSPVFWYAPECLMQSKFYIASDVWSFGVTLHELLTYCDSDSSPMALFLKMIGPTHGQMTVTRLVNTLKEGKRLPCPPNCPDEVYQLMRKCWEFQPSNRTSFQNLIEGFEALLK
T2 sequence (P29597 whole entry): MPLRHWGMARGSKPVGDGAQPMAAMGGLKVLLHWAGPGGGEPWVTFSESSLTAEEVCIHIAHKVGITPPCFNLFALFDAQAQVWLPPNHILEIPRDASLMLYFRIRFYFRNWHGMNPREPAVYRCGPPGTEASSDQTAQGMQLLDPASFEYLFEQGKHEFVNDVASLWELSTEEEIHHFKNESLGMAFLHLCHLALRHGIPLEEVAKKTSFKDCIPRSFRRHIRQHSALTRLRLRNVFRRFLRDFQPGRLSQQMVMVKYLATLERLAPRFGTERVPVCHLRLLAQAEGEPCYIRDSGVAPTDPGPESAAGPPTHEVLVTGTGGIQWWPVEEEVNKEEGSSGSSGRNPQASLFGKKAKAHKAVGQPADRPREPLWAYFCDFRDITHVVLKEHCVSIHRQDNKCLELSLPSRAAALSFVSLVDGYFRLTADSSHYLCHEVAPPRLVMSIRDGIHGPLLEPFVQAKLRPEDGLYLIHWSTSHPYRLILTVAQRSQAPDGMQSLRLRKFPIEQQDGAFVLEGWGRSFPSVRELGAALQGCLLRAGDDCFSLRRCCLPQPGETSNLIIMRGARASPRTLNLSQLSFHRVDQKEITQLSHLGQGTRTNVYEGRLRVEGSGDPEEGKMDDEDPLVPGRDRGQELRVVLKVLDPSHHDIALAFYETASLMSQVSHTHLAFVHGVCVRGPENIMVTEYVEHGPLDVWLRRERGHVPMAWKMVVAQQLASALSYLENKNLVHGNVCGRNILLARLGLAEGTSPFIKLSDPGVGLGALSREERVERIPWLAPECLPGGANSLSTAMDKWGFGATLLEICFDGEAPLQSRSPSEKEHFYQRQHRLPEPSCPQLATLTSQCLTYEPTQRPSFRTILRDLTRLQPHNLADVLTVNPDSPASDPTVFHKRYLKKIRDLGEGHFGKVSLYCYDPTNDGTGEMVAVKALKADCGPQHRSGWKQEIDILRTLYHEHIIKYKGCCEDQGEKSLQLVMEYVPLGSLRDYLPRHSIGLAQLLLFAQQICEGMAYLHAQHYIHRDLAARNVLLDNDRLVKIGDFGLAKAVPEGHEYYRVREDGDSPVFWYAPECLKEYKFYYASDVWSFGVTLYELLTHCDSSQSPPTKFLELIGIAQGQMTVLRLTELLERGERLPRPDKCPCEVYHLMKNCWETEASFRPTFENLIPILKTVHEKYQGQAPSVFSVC

Broadly, the IC50 is the midpoint of a concentration-inhibition curve. As for `CN(C)C(=O)C(Nc1nc(Nc2cnn(CCO)c2)ncc1Cl)c1ccccc1F` (stereo not shown) [Compound 127], the 50% inhibitory concentration (IC50) on JAK1 and on TYK2 was 1000 to 10000 nM each time.

As for `Cn1cc(Nc2ncc(F)c(N[C@H](CO)c3cc(F)ccc3F)n2)cn1` [Compound 146], the IC50 at JAK1 and at TYK2 was 100 to 1000 nM each time.

For the compound `Cc1cnc(Nc2cnn(C)c2)nc1N[C@H](CO)c1cc(F)cc(F)c1` [Compound 164], the figures for the IC50 at JAK1 and on TYK2 were 100 to 1000 nM and 1000 to 10000 nM, respectively.

Regarding `Cn1cc(Nc2ncc(Cl)c(N[C@H](CO)c3cccc(N4CCOCC4=O)c3)n2)cn1` [Compound 138], the 50% inhibitory concentration (IC50) on JAK1 and at TYK2 was 1000 to 10000 nM throughout.

On to `CNC(=O)Cn1cc(Nc2ncc(Cl)c(N[C@H](CO)c3cccc(OC)c3)n2)cn1` [Compound 99], for which the IC50 on JAK1 and at TYK2 was 1000 to 10000 nM throughout.

`Cn1cc(Nc2ncc(F)c(N[C@H](CO)c3cc(F)cc(-c4cnn(C)c4)c3)n2)cn1` [Compound 150]: the concentration for half-maximal inhibition (IC50) on JAK1 is 1000 to 10000 nM; on TYK2 it was at least 10000 nM.

For the compound `Cn1cc(Nc2ncc(Cl)c(NC(CO)c3ccccc3Cl)n2)cn1` (stereo not shown) [Compound 117], the 50% inhibitory concentration (IC50) at JAK1 and on TYK2 was 1000 to 10000 nM throughout.

Turning to `NC(=O)Cn1cc(Nc2ncc(Cl)c(NC(CO)c3ccccc3Cl)n2)cn1` (stereo not shown) [Compound 118], the 50% inhibitory concentration (IC50) at JAK1 and on TYK2 was 100 to 1000 nM throughout.

Consider `OCCn1cc(Nc2ncc(Cl)c(NC(CO)c3cc(F)cc(F)c3)n2)cn1` (stereo not shown) [Compound 122], for which the concentration for half-maximal inhibition (IC50) on JAK1 and at TYK2 was 100 to 1000 nM in each case.

For `CN1CCC(n2cc(Nc3ncc(Cl)c(N[C@H](CO)c4ccccc4)n3)cn2)C1=O` (stereo partly shown) [Compound 135], the concentration for half-maximal inhibition (IC50) on JAK1 was in the range of 100 to 1000 nM; at TYK2, 1000 to 10000 nM.

For `Cn1cc(Nc2ncc(Cl)c(N[C@H](CO)c3cccc(-c4cnn(C)c4)c3)n2)cn1` [Compound 136], the concentration for half-maximal inhibition (IC50) on JAK1 was over 10000 nM; on TYK2, at least 10000 nM.

Take `Cn1cc(-c2cccc([C@@H](CO)Nc3nc(Nc4cnn(CCO)c4)ncc3Cl)c2)cn1` [Compound 151]: the IC50 is 1000 to 10000 nM at JAK1 and at least 10000 nM on TYK2.

As for `CC(C)n1cc(Nc2ncc(Cl)c(N[C@H](CO)c3cccnc3)n2)cn1` [Compound 107], the IC50 on JAK1 and at TYK2 was 1000 to 10000 nM each time.

As to `Cn1cc(Nc2ncc(C(F)(F)F)c(N[C@H](CO)c3ccccc3)n2)cn1` [Compound 6], the IC50 was over 10000 nM on JAK1 and at least 10000 nM on TYK2.

Turning to `OCCn1cc(Nc2ncc(Cl)c(N[C@H](CO)c3cc(F)cc(F)c3)n2)cn1` [Compound 143], the IC50 at JAK1 was under 100 nM; on TYK2 it was 100 to 1000 nM.

Take `COc1cccc([C@@H](CO)Nc2nc(Nc3cnn(CC(=O)N4CCOCC4)c3)ncc2Cl)c1` [Compound 102]: the concentration for half-maximal inhibition (IC50) on JAK1 and on TYK2 was 100 to 1000 nM in each case.

Regarding `CNC(=O)Cn1cc(Nc2ncc(F)c(N[C@H](CO)c3ccccc3)n2)cn1` [Compound 111], the IC50 on JAK1 and at TYK2 was 1000 to 10000 nM in each case.

Regarding `Cc1cnc(Nc2cnn(C)c2)nc1N[C@H](CO)c1cccc(-c2cnn(C)c2)c1` [Compound 149], the values for the half-inhibitory concentration (IC50) on JAK1 and on TYK2 were over 10000 nM and at least 10000 nM, respectively.

Turning to `O=C(Cn1cc(Nc2ncc(F)c(N[C@H](CO)c3ccccc3)n2)cn1)N1CCOCC1` [Compound 112], the figures for the IC50 at JAK1 and at TYK2 were 1000 to 10000 nM and 100 to 1000 nM, respectively.

Regarding `CNC(=O)Cn1cc(Nc2ncc(Cl)c(N[C@H](CO)c3ccccc3OC)n2)cn1` [Compound 98], the IC50 at JAK1 and on TYK2 was 100 to 1000 nM in each case.

Take `Cn1cc(Nc2ncc(F)c(N[C@H](CO)c3cc(F)cc(F)c3)n2)cn1` [Compound 158]: the 50% inhibitory concentration (IC50) on JAK1 and at TYK2 was 1000 to 10000 nM each time.

Regarding `CNC(=O)Cn1cc(Nc2ncc(Cl)c(N[C@H](CO)c3cccc(-c4cnn(C)c4)c3)n2)cn1` [Compound 154], the IC50 at JAK1 was in the range of 1000 to 10000 nM; at TYK2, 100 to 1000 nM.

For the compound `O=C(Cn1cc(Nc2ncc(Cl)c(N[C@H](CO)c3cccnc3)n2)cn1)N1CCOCC1` [Compound 104], the concentration for half-maximal inhibition (IC50) on JAK1 and on TYK2 was 100 to 1000 nM throughout.

Take `CCn1cc(Nc2ncc(Cl)c(N[C@H](CO)c3cccc(OC)c3)n2)cn1` [Compound 96]: the concentration for half-maximal inhibition (IC50) on JAK1 and at TYK2 was 1000 to 10000 nM in each case.

`CNC(=O)Cn1cc(Nc2ncc(F)c(N[C@H](CO)c3cc(F)cc(-c4cnn(C)c4)c3)n2)cn1` [Compound 157]: the IC50 is 1000 to 10000 nM at JAK1 and at least 10000 nM at TYK2.

As for `Cn1cc(-c2cccc(C(CO)Nc3nc(Nc4cnn(CCO)c4)ncc3Cl)c2)cn1` (stereo not shown) [Compound 94], the 50% inhibitory concentration (IC50) on JAK1 is 1000 to 10000 nM; on TYK2, at least 10000 nM.

Regarding `CC(C)NC(=O)Cn1cc(Nc2ncc(Cl)c(N[C@H](CO)c3ccccc3F)n2)cn1` [Compound 115], the IC50 on JAK1 and on TYK2 was 100 to 1000 nM each time.

With `COc1ccccc1[C@@H](CO)Nc1nc(Nc2cnn(CC(=O)N3CCOCC3)c2)ncc1Cl` [Compound 101], the IC50 is 100 to 1000 nM at JAK1 and under 100 nM at TYK2.

Turning to `CCC(Nc1nc(Nc2cnn(CC(N)=O)c2)ncc1Cl)c1ccccc1F` (stereo not shown) [Compound 126], the IC50 lay in the range of 100 to 1000 nM at JAK1 and 1000 to 10000 nM on TYK2.

With `CNC(=O)Cn1cc(Nc2ncc(C)c(N[C@H](CO)c3ccccc3)n2)cn1` [Compound 133], the IC50 on JAK1 and at TYK2 was 1000 to 10000 nM throughout.

Turning to `OCCn1cc(Nc2ncc(F)c(N[C@H](CO)c3cc(F)cc(F)c3)n2)cn1` [Compound 159], the concentration for half-maximal inhibition (IC50) on JAK1 and at TYK2 was 100 to 1000 nM in each case.

Turning to `O=C(Cn1cc(Nc2ncc(Cl)c(N[C@H](CO)c3ccccc3F)n2)cn1)N1CCOCC1` [Compound 103], the IC50 at JAK1 and on TYK2 was 100 to 1000 nM in each case.
